We go through 15 compounds from BindingDB's records for doi:10.1016/s1074-5521(97)90073-9 (University of California Berkeley, 1997).

pIC50, pKi: −log10 of the molar value. Where only a bound is given, the exact number is not on record here.

Cathepsin D, sequence (P07339 65-162 limits assumed): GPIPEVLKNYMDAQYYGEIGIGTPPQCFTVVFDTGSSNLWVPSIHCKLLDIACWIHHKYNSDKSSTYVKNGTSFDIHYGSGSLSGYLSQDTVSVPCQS
Cathepsin D, sequence (P07339 169-412 limits assumed): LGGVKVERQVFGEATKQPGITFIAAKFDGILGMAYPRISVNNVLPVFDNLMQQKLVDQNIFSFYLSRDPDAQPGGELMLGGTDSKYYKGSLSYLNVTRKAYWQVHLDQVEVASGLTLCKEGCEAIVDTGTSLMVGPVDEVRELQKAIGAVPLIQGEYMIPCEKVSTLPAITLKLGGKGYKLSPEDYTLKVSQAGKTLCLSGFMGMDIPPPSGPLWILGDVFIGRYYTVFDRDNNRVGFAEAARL

This assay addresses Cathepsin D (Homo sapiens, UniProt P07339). Briefly: High Through-Put Fluorescence Assay. To be noted: pH 3.7. The text has this:
A fluorometric high through-put assay for inhibitor towards human liver cathepsin D from Calbiochem.
What is called pKi is −log10 of the Ki, conventionally taken in molar units. Read a low pKi as a large Ki. Compound `O=C(COc1cc(Cl)c(Cl)cc1Cl)N[C@@H](c1ccccc1)[C@H](O)CN(CCc1ccc2c(c1)OCO2)C(=O)CCN1C(=O)c2ccccc2C1=O` [(R)-EHD] gave a pKi below 5.30.
As usually defined, the pIC50 is the IC50 on a negative log10 scale, so that one unit is a factor of ten. Low values mean a large IC50, high ones a small IC50. In turn, `O=C(COc1ccc(Cl)c(Cl)c1)N[C@@H](c1ccccc1)[C@H](O)CN(CCc1ccc2c(c1)OCO2)C(=O)CCN1C(=O)c2ccccc2C1=O` [(R)-EHO] showed a pIC50 below 5.30.
In the case of `O=C(CCn1c(=O)oc2ccccc21)N[C@@H](c1ccccc1)C(O)CN(CCc1ccc2c(c1)OCO2)C(=O)CCc1ccc(Cl)c(Cl)c1` (stereo partly specified) [EFA], the pKi is 6.77.
The same measure, in the same setting: to `O=C(CCn1c(=O)oc2ccccc21)N[C@@H](c1ccccc1)C(O)CN(CCc1ccc2c(c1)OCO2)C(=O)CCN1C(=O)c2ccccc2C1=O` (stereo partly specified) [EHA] belongs 6.88; to `O=C(COc1cc(Cl)c(Cl)cc1Cl)N[C@@H](c1ccccc1)C(O)CN(CCc1ccc2c(c1)OCO2)C(=O)CCN1C(=O)c2ccccc2C1=O` (stereo partly specified) [EHD], 7.14.
Still for that read-out and setting: to `COc1ccc(C(=O)N[C@@H](c2ccccc2)C(O)CN(CCc2ccc3c(c2)OCO3)C(=O)CCN2C(=O)c3ccccc3C2=O)c(Cl)c1OC` (stereo partly specified) [EHJ] belongs 6.95.
`O=C(COc1ccc(Cl)cc1Cl)N[C@@H](c1ccccc1)C(O)CN(CCc1ccc2c(c1)OCO2)C(=O)CCN1C(=O)c2ccccc2C1=O` (stereo partly specified) [EHM] showed a pIC50 of 7.85 and a pKi of 8.05.
`O=C(COc1ccc(Cl)c(Cl)c1)N[C@@H](c1ccccc1)C(O)CN(CCc1ccc2c(c1)OCO2)C(=O)CCN1C(=O)c2ccccc2C1=O` (stereo partly specified) [EHO] had a pIC50 of 7.72 and a pKi of 7.82.
For `O=C(COc1cccc(Cl)c1)N[C@@H](c1ccccc1)C(O)CN(CCc1ccc2c(c1)OCO2)C(=O)CCN1C(=O)c2ccccc2C1=O` (stereo partly specified) [EHR], in that order: 7.70 and 7.82.
For `COc1cc(Br)c(C(=O)N[C@@H](c2ccccc2)C(O)CN(CCc2ccc3c(c2)OCO3)C(=O)CCN2C(=O)c3ccccc3C2=O)cc1OC` (stereo partly specified) [EHS], in that order: 7.19 and 7.23.
In turn, `COc1cccc(CCN(CC(O)[C@@H](NC(=O)Cn2c(O)csc2=S)c2ccccc2)C(=O)NC2CCCCC2)c1` (stereo partly specified) [FBB] gave a pKi of 6.45.
Same read-out and setting: to `CCCCCCC(=O)N(CCc1cccc(OC)c1)CC(O)[C@@H](NC(=O)Cn1c(O)csc1=S)c1ccccc1` (stereo partly specified) [FDB] belongs 6.23; to `O=C(CCn1c(=O)oc2ccccc21)N[C@@H](c1ccccc1)C(O)CN(CCc1ccc(Cl)cc1Cl)C(=O)CCN1C(=O)c2ccccc2C1=O` (stereo partly specified) [FHA], 6.64.
As for `O=C(COc1ccc(Cl)c(Cl)c1)N[C@@H](c1ccccc1)C(O)CN(CCc1ccc(Cl)cc1Cl)C(=O)CCN1C(=O)c2ccccc2C1=O` (stereo partly specified) [FHO], the pIC50 is 7.74 and the pKi is 7.85.
In the same order, the values of `Cc1ccc(CCN(CC(O)[C@@H](NC(=O)COc2cc(Cl)c(Cl)cc2Cl)c2ccccc2)C(=O)CCN2C(=O)c3ccccc3C2=O)cc1` (stereo partly specified) [UHD] are 6.64 and 6.65.
